One test has as its system common rice weeds. Kind of test: Weed control by mesotrione in rice plots. It counts as in vivo. Particulars: mesotrione alone; especially pre-plant or 2x the labeled rate of 210 gmai/ha. The method, then: FIG. 6A-6B is a photograph of results of trait tolerance trials; weed control by mesotrione herbicide applied pre-planting was evaluated; the plots were planted with a hybrid of the HPPD tolerant line ML0831266-03093; just before planting, the plot on the right FIG. 6B received an application of mesotrione at 210 gmai/ha; the plot on the left FIG. 6A had no herbicide applied either pre-plant or post-emergence; pictures were taken four weeks after planting showing differences in weed appearance.
Rice is tolerant to certain ACCase inhibitor herbicides, for example cyhalofop is registered for use in rice. However other ACCase herbicides kill or severely injure rice to varying degrees. […] The applied rates of both types of herbicides giving the weed control are well within the tolerance level of the respective ACCase and HPPD tolerant lines including the combined lines carrying tolerance to both HPPD and ACCase herbicides.
Further validation of the trait involved testing the mutant line ML0831266-03093 in the presence of common rice weeds. […] This level of grass weed control was completely unexpected as mesotrione is labeled for controlling broadleaf weeds in monocot crops.

A further test has as its system line PL1214418M2-73001. Kind of test: Mesotrione trait tolerance trial. In kind it is in vivo, rice. Particulars: 0.5x to 4x of 210 gmai/ha at 4 leaf stage, evaluated 4 weeks after application. The text has this:
During the breeding process to develop new lines (PL1214418M2-80048 and PL1214418M2-73009) with resistance/tolerance to HPPD and ACCase herbicides, two other lines were also investigated to determine the contribution of the HPPD tolerance mutation and the HPPD tolerance native gene. The line PL1214418M2-73001 carries ACCase tolerance and only the HPPD tolerance, whereas […] PL1214418M2-73013 carries ACCase tolerance and only the HPPD native tolerance gene. These selections allow the estimation of the tolerance effect of each of the two genes required for tolerance to HPPD herbicides. The tolerance effect of each gene was measured by growing the lines in single rows including the newly developed line PL1214418M2-73009 that carries both the HPPD tolerance from the mutation and the non-induced tolerance, the HPPD tolerant line ML0831266-0309, and the non-induced parent line P1003. The field plots were sprayed at the 4 leaf stage with the HPPD herbicide mesotrione at 0.5×, 1×, 2×, and 4× multiples of the labeled application rate of 210 gmai/ha.
The plots were evaluated 4 weeks after the herbicide was applied. […] The two genes also appear to function in an additive manner as only by combining the two in the new line PL1214418M2-73009 does the tolerance level become equivalent to the original mutant line ML0831266-0309.

The subject of test [1] is permanent mutant population (lines derived from P1003, R0146, P1062). Kind of test: Mesotrione screening of the permanent mutant population. It counts as in vivo, rice. Particulars: 255.1 gm ai per acre, within twelve hours after planting. The text has this: A mutation breeding program was initiated to develop proprietary herbicide resistant/tolerant lines. A permanent mutant population was created by exposing approximately 10,000 seeds (estimated by the average weight of a kernel) of three rice lines including P1003, R0146, and P1062 to both mutagens sodium azide (AZ) and methyl-nitrosourea (MNU). The treated seeds were planted. Individual plants were harvested creating 8,281 potentially […] lines. The lines have been maintained as a permanent mutant population for trait screening.
Resistance to mesotrione herbicide was found by screening the permanent mutant population. All lines in the permanent mutant population were planted into a dry seed bed. Within twelve hours after planting mesotrione (Callisto®) was applied at a rate of 255.1 gm ai per acre. The field was immediately flushed with water and kept moist through periodic flushing. The seedlings grew, many were bleached white and all lines derived from R0146 died whereas plants lived from 21 lines derived from the P1003 and 2 derived from P1062 mutation populations. The HPPD gene was sequenced, and no genetic mutation was identified causing any amino acid substitutions (SEQ ID NOs: 1, 2, 3).

The subject of another test is line ML0831265-01493. Kind of test: Mesotrione tolerance trials / herbicide bioassay. It counts as in vivo, rice. An excerpt: The mutant line is planted in rows or alternatively whole plots are planted and rows of the unmutated line (P1003) and other types of rice or whole plots are planted. Mesotrione is applied pre-emergence or alternatively it is applied post-emergence at the three to four leaf stage of the rice plants. Various rates of mesotrione are applied pre-emergence, pre-emergence followed by post-emergent, or post-emergent with a single or sequential application. Post-emergent applications are applied at the 3-4 leaf stage of the rice.
With low rates (105 gm ai/ha) of mesotrione applied both the mutant line as well as the original unmutated line survive. However, other types of rice, such as the mutant line with ACCase tolerance ML0831265-01493 and the associated unmutated line R0146 are killed at these rates of mesotrione. […] The higher tolerance to mesotrione makes the line ML0831266-03093 of commercial value as both the tolerance can be controlled or bred into new varieties and it is of a high enough level to allow commercial weed control in rice with the application of mesotrione herbicide and possibly other HPPD inhibiting herbicides (FIG. 19A initial results, FIG. 19B new results after 1 year, and FIG. 22—trial results on various rice lines).

For another test, the system named is line PL1214418M2-80048. Kind of test: Herbicide tolerance of the combined HPPD and ACCase line. The arrangement: species or system rice. The following applies: in vivo. The text has this: An early maturing group of plants was harvested as early as possible and the seeds planted in the greenhouse to help quickly advance to the F4 generation. Selections on the F3 plants were made by molecular markers flanking the HPPD tolerance mutation and native tolerance the ACCase functional mutation. Homozygous plants for all the selected genomic regions were advanced to the F5 generation. The F5 seed was confirmed to carry tolerance to ACCase herbicides and the HPPD herbicide mesotrione. Among the F5 lines PL1214418M2-80048 was selected due to a high seed yield and being homozygous for the ACCase tolerance mutation at position G2096S, the HPPD tolerance mutation, and the HPPD tolerance native gene. Seed from the line PL1214418M2-80048 was deposited at the ATCC and given a deposit number PTA-121362 (see Table 8).
Individuals with tolerance to both mesotrione and ACCase herbicides were selfed to produce F3 families and further selected for other important agronomic characters. The F3 lines were selfed and purified to derive a new line or variety with dual resistance to mesotrione and ACCase herbicides. Such lines are highly valuable as the use of both herbicides provides more complete and broad-spectrum weed control. […]

The structures appear in SMILES notation. “Also recorded” adds a separate entry of the source.

As to `CS(=O)(=O)c1ccc(C(=O)C2C(=O)CCCC2=O)c([N+](=O)[O-])c1` [mesotrione], in the test with common rice weeds, the “weed control by mesotrione” value is given as “well controlled; also recorded: prevalent control; also recorded: Control of common weeds in rice was also achieved”. In addition, the “tolerance to mesotrione compared with P1003 and ML0831266-0309” value in the test with line PL1214418M2-73001 is “intermediate tolerance”. In test [1], the “number of lines derived from P1003 with plants that lived” value was determined as 21 lines, the “number of lines derived from P1062 with plants that lived” value stood at 2 lines and the “response of lines derived from R0146” value is “died”. The sensitivity to mesotrione result in the test on line ML0831265-01493 (in vivo) is given as “highly susceptible; also recorded: highly sensitive”. For the same compound, the survival after mesotrione entry in the test on line ML0831265-01493 (low rate 105 gm ai/ha) was “killed”. Besides, in the test on line PL1214418M2-80048, the “tolerance to the herbicide” value is given as “tolerance”.

Values taken from patent publication US9994862B2, “Rice resistant to HPPD and ACCase inhibiting herbicides” (priority 2011, dated 2018).
